In patent US20260001854A1, “CONJUGATE COMPOUND COMPRISING 13-CIS-RETINOIC ACID AND ASCORBIC ACID” (Mastery Biotech CO., LTD., priority 2023, published 2026) one finds viability and IC50 data, which are given here for two compounds.

pIC50: −log10 of the molar value.

Data set [1] can be described thus: MTT cell viability (cytotoxicity) assay, A549. It counts as cell-based, human. As to conditions: human, A549 cells. The procedure: (§1) Cells were cultured in indicated growth medium with 10% FBS and were maintained in a humidified incubator at 37° C. containing 5% CO2. Formula A2 compound was weighted and dissolved in DMSO/EtOH mixture solvent of 1/4 (v/v) ratio to a final concentration of 200 mM at the day of treatment. One day before treatment, cells at log-phase of growth were harvested, counted, and seeded in a 96-well plate at a density of 5×10^3 cells/[…]/well. After cultivation overnight, assumed wells were gently added with […] of fresh media prepared with the serial concentration from 40 to 1000 μM to bring the working concentration from 20 to 500 μM subsequently. The control plate without Formula A2 was carried out as the same procedure as above but […] of fresh media prepared with the equal solvent volume added. All plates were mixed gently and incubated for next 24 hours.
(§2) At the day of cell viability detection, tested wells were added […] of MTT working solution and incubated at 37° C. for 3 hours. Spectrophotometric absorbance readings were recorded at wavelength of 540 nm. Readings from blank wells (wells contains only cell culture medium without cells) and negative control wells (wells with cell and culture medium without Formula A2 and solvent treatment) were recorded and used for calibration. After all readings of OD540 subtracted the blank value, the percentage of cell viability were calculated using the following formula: […]
(§3) The concentration of Compound A that inhibited cell survival to 50% (IC50) was determined by an online tool “Quest Graph™ IC50 Calculator.” AAT Bioquest, Inc., 26 June. 2024, www.aatbio.com/tools/ic50-calculator.

A further data set deals with A549. Briefly: MTT cell viability (cytotoxicity) assay, A549. It counts as cell-based, human. As to conditions: Homo sapiens; A549 cell line, estimated from cell viability values with Quest Graph IC50 Calculator; read-out: IC50 (concentration that inhibited cell survival to 50%). The procedure:
as §1, §2, §3

The nature of data set [2]: MTT cell viability (cytotoxicity) assay, A549. It counts as cell-based. Conditions: human, A549 cells.
Data set [3] can be described thus: MTT cell viability (cytotoxicity) assay, Caco-2. It counts as cell-based. Conditions: human, mean of 6 wells. The procedure:
as §1, §2, §3

Data set [4] in a line: MTT cell viability (cytotoxicity) assay, PANC-1. It counts as cell-based. As to conditions: human, PANC-1 cells, mean of 6 wells. The procedure: as §1, §2, §3

Consider `CC1=C(/C=C/C(C)=C/C=C/C(C)=C\C(=O)O)C(C)(C)CCC1` [13-cis retinoic acid, (2Z,4E,6E,8E)-3,7-dimethyl-9-(2,6,6-trimethylcyclohex-1-en-1-yl)nona-2,4,6,8-tetraenoic acid, reference compound], for which the viability at 24 h, 30 μM in data set [1] (13-cis RA 30 μM) stood at 75%. The viability at 24 h, 60 μM in data set [1] (13-cis RA 60 μM) was 73%. Further, the viability at 24 h, 120 μM in data set [1] (13-cis RA 120 μM) is 57%. Further, the viability at 24 h, 240 μM in data set [1] (13-cis RA 240 μM) worked out at 50%. Further, the viability at 24 h, 480 μM in data set [1] (13-cis RA 480 μM) is 50%. Besides, the pIC50 with A549 was 3.29. In addition, the viability at 24 h, 7.5 μM in data set [2] (13-cis RA 7.5 μM) is 95%. Moreover, the viability at 24 h, 15 μM in data set [2] (13-cis RA 15 μM) stood at 78%. In data set [2] (13-cis RA 960 μM), the viability at 24 h, 960 μM came out at 51%.
For `CC1=C(/C=C/C(C)=C/C=C/C(C)=C\C(=O)OC2=C(O)[C@@H]([C@@H](O)CO)OC2=O)C(C)(C)CCC1` [Formula A1], the viability at 24 h, 20 μM in data set [1] (Formula A1 20 μM, 24 hours, MTT, mean of 6 wells) was found to be 102%; in data set [4] (20 μM) it was 69%. For the same compound, the viability at 24 h, 100 μM was found to be 100% in data set [1] (Formula A1 100 μM, 24 hours, MTT, mean of 6 wells) and 54% in data set [4] (100 μM). Besides, the viability at 24 h, 150 μM is 80% in data set [1] (Formula A1 150 μM, 24 hours, MTT, mean of 6 wells) and 50% in data set [4] (150 μM). In addition, the viability at 24 h, 180 μM in data set [1] (Formula A1 180 μM, 24 hours, MTT, mean of 6 wells) turned out to be 29%; in data set [4] (180 μM), 16%. Also, the viability at 24 h, 230 μM was 63% in data set [1] (Formula A1 230 μM, 24 hours, MTT, mean of 6 wells) and 17% in data set [4] (230 μM). Further, the viability at 24 h, 253 μM in data set [1] (Formula A1 253 μM, 24 hours, MTT, mean of 6 wells) stood at 28%; in data set [4] (253 μM) it was 19%. The viability at 24 h, 500 µM in data set [1] (Formula A1 500 μM, 24 hours, MTT, mean of 6 wells) turned out to be 11%; in data set [3] (500 μM), 24%; in data set [4] (500 μM), 22%. In addition, the pIC50 with A549 is 3.70. For the same compound, the viability at 24 h, 200 µM in data set [3] (200 μM) is 91%. The viability at 24 h, 300 µM in data set [3] (300 μM) was found to be 58%. In addition, the viability at 24 h, 400 µM in data set [3] (400 μM) was found to be 33%. In addition, the viability at 24 h, 50 μM is 69% in data set [4] (50 μM) and 94% in data set [2] (Formula A1 50 μM, 24 hours, MTT, mean of 6 wells).
